# According to patent US4428936A, “Antibacterial composition for medical use” (Toyama Chemical Co., Ltd., priority 1978, dated 1984):
# How the values were obtained:
# Escherichia coli GN 6299 = assay: Growth-inhibition test with potassium clavulanate; format: cell-based; set-up: key: (+) means that the test bacterium grew; (-) means that the test bacterium did not grow; details: T-1551 Na 0 μg/ml; potassium clavulanate alone by line b171,b173-b181: 100,(unlabelled),25,(unlabelled),6.25,(unlabelled),1.6,(unlabelled),0.4,(unlabelled) μg/ml
# Experimental: (§1) Heart Infusion agar containing a prescribed amount of Methicillin sodium or T-1551 Na was inoculated with the test bacterium at a rate of about 10^8 cells/ml. After incubation for 18 hours at 37° C., the growth of the test bacterium was inspected.
# (§2) The same operation as in Test Example 1 was repeated, except that the Methicillin sodium was replaced by potassium clavulanate and the test bacteria were replaced by those shown in Tables 6, 7 and 8, to obtain the results shown in Tables 6, 7 and 8.
# [1] = tested on: Klebsiella pneumoniae GN 69; assay: Growth-inhibition test with potassium clavulanate; format: cell-based; set-up: key: (+) means that the test bacterium grew; (-) means that the test bacterium did not grow; details: T-1551 Na 0 μg/ml; potassium clavulanate alone by line b195,b197-b205: 100,(unlabelled),25,(unlabelled),6.25,(unlabelled),1.6,(unlabelled),0.4,(unlabelled) μg/ml
# Experimental: as §1, §2
# [2] = tested on: Pseudomonas aeruginosa GN 3345; assay: Growth-inhibition test with potassium clavulanate; format: cell-based; set-up: key: (+) means that the test bacterium grew; (-) means that the test bacterium did not grow; details: T-1551 Na 0 μg/ml; potassium clavulanate alone by line b219-b228: 100,(unlabelled),25,(unlabelled),12.5,(unlabelled),3.1,(unlabelled),0.4,(unlabelled) μg/ml
# Experimental: as §1, §2
# K. pneumoniae Y-53 = assay: Effect of combined use on experimental infection in mice (protection); format: in vivo, mice (ICR strain) infected with K. pneumoniae; details: challenge dose 1.0 × 10^7 cells/mouse, peritoneal; subcutaneous administration one and two hours after inoculation
# Description: (§3) Male mice (5 mice per group) of the ICR strain, 4 weeks of age, were peritoneally inoculated with the prescribed number of pathogenic bacteria suspended in 5% mucin. After one hour and two hours following the inoculation, test preparations shown in Table 5 were subcuataneously administered to examine the protection effect.
# K. pneumoniae Y-4 = assay: as above; format: in vivo, mice (ICR strain) infected with K. pneumoniae; details: challenge dose 5.7 × 10^7 cells/mouse, peritoneal; subcutaneous administration one and two hours after inoculation
# Description: as §3
# [3] = tested on: Klebsiella pneumoniae Y-4; assay: Growth-inhibition test on clinically isolated strain (agar, about 10^8 cells/ml); format: cell-based; set-up: key: (+) means that the test bacterium grew; (-) means that the test bacterium did not grow; details: T-1551 Na 0 μg/ml; Methicillin sodium alone by line b62-b70: 3200,1600,800,400,200,100,50,25,12.5 μg/ml; 18 hours, 37° C
# Experimental: as §1
# [4] = tested on: Pseudomonas aeruginosa S-111; assay: as above; format: cell-based; set-up: key: (+) means that the test bacterium grew; (-) means that the test bacterium did not grow; details: T-1551 Na 0 μg/ml; Methicillin sodium alone by line b92-b100: 3200,1600,800,400,200,100,50,25,12.5 μg/ml; 18 hours, 37° C
# Experimental: as §1
# Escherichia coli TK-3 [5] = assay: as above; format: cell-based; set-up: key: (+) means that the test bacterium grew; (-) means that the test bacterium did not grow; details: T-1551 Na 0 μg/ml; Methicillin sodium alone by line b32-b40: 3200,1600,800,400,200,100,50,25,12.5 μg/ml; 18 hours, 37° C
# Experimental: as §1
# [6] = tested on: Klebsiella pneumoniae Y-4; assay: Minimum inhibitory concentration; format: cell-based; details: Y4; Klebsiella pneumoniae Y-4 strain
# Experimental: (§4) The minimum inhibitory concentration of T-1551 Na or Methicillin sodium against Escherichia coli TK-3 strain or Kleosiella pneumoniae Y-4 strain was greater than 800 μg/ml in each case.
# Escherichia coli TK-3 [7] = assay: Minimum inhibitory concentration; format: cell-based; details: TK3; Escherichia coli TK-3 strain
# Experimental: as §4
SMILES,growth of the test bacterium (Escherichia coli GN 6299),growth of the test bacterium [1],growth of the test bacterium [2],ED50 (protection effect) (K. pneumoniae Y-53),ED50 (protection effect) (K. pneumoniae Y-4),growth of the test bacterium [3],growth of the test bacterium [4],growth of the test bacterium (Escherichia coli TK-3 [5]),MIC [6],MIC (Escherichia coli TK-3 [7])
"O=C(O)[C@H]1/C(=C/CO)O[C@@H]2CC(=O)N21 [Potassium clavulanate, potassium clavulanate, reference compound]",- and +,- and +,+,,,,,,,
"COc1cccc(OC)c1C(=O)N[C@@H]1C(=O)N2[C@@H]1SC(C)(C)[C@@H]2C(=O)O [Methicillin sodium, reference compound]",,,,> 46.6 mg/mouse,> 50 mg/mouse,+,+,+,> 800 µg/mL,> 800 µg/mL
